The source of these data is article PMC11678328, “Phosphine Oxide Indenoquinoline Derivatives: Synthesis and Biological Evaluation as Topoisomerase I Inhibitors and Antiproliferative Agents” (Molecules, 2024).

The test system of assay [1] is HEK293 (human embryonic kidney). As to the kind of experiment: CCK-8 cytotoxicity assay, HEK293. The class given is cell-based. As to conditions: HEK293 cells, 48h. From the text:
(§1) The cytotoxic effects of the newly synthesized diphenyl(tetrahydro-5H-indeno[2,1-c]quinolin-2-yl)phosphine oxides 8, diphenyl(7H-indeno[2,1-c]quinolin-2-yl)phosphine oxides 9, and diphenyl(7-oxo-7H-indeno[2,1-c]quinolin-2-yl)phosphine oxides 10 derivatives were studied against several human cell lines: A549 (carcinomic human alveolar basal epithelial cell), SKOV3 (human ovarian carcinoma), and HEK293 (human embryonic kidney). Furthermore, in order to analyze the selective cytotoxicity facing exclusively cancerous cell lines, toxicity against a non-cancerous cell line (MRC-5, lung fibroblast cells) was also evaluated (Table 3). The cell counting kit (CCK-8) assay was employed to assess the growth inhibition and cell proliferation inhibitory activities of the compounds, which are described in Table 3 as IC50 values.
(§2) Cells were cultured according to the supplier’s instructions. Cells were seeded in 96-well plates at a density of 1.5–3 × 10^3 cells per well and incubated overnight in 0.1 mL of media supplied with 10% Fetal Bovine Serum (Lonza) in a 5% CO2 incubator at 37 °C. On day 2, drugs were added and the samples were incubated for 48h. After treatment, 10 μL of the cell counting kit-8 was added into each well for an additional 2h incubation at 37 °C. The absorbance of each well was determined by an Automatic Elisa Reader System at 450 nm wavelength (deducting 620 nm). CPT was used as the positive control.

In assay [2] the test system is MRC-5, lung fibroblast cells. In words: CCK-8 cytotoxicity assay, MRC5. The class given is cell-based, human. The following applies: Homo sapiens; MRC5 non-cancerous cells, 48h, CCK-8.
From the text: as §1, §2

The target of assay [3] is T1, human TOP1 (Homo sapiens, UniProt P11387).
T1 construct: made in house; host or cells: Saccharomyces cerevisiae TOP1 null strain RS190, plasmid pHT143 (GAL promoter)
T1 sequence (P11387 1-765): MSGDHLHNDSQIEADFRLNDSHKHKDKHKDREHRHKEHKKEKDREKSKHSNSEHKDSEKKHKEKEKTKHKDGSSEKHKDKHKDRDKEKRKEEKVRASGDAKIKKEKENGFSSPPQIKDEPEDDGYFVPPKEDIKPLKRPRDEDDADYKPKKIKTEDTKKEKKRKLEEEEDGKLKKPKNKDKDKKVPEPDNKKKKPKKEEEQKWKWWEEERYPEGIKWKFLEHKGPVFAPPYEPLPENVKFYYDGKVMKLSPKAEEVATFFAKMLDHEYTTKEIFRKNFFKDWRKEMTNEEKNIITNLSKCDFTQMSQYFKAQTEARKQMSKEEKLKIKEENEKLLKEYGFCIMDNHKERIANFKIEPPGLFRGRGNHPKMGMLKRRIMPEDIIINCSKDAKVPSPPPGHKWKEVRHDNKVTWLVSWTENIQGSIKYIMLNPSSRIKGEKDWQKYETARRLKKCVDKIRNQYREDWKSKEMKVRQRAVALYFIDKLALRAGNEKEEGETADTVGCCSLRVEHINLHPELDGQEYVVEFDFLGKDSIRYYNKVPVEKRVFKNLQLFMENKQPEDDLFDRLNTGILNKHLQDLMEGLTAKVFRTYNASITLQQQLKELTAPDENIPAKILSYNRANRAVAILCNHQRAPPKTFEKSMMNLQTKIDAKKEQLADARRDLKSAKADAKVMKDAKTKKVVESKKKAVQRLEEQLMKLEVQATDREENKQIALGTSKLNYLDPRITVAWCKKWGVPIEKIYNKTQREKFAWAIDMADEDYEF
In words: TOP1 supercoiled plasmid DNA relaxation assay. The class given is biochemical. The following applies: 30 min reaction; compounds at 100 μM; semiquantitative.

Assay [4] deals with A549 (carcinomic human alveolar basal epithelial cell). As to the kind of experiment: CCK-8 cytotoxicity assay, A549. As to conditions: Homo sapiens, A549, 48 h, A549 cells, 48h, CCK-8. The class given is cell-based.
From the text: as §1, §2

Assay [5] deals with SKOV3 (human ovarian carcinoma). In words: CCK-8 cytotoxicity assay, SKOV3. The class given is cell-based. As to conditions: SK-OV-3, SKOV3 cells, 48h.
From the text: as §1, §2

For assay [6], the target named is T1, human TOP1. As to the kind of experiment: TOP1 supercoiled plasmid DNA relaxation assay. The following applies: compounds at 100 μM, semiquantitative; for TOP1 Inhibition 1 min: 1 min reaction; for TOP1 Inhibition 3 min: 3 min reaction; for TOP1 Inhibition 5 min: 5 min reaction. The class given is biochemical. The source says: The effect of the previously prepared compounds as TOP1 inhibitors was studied. A conventional supercoiled plasmid relaxation assay was used to determine if the newly fused tetrahydroindenoquinolines 8, more aromatic indenoquinolines 9, and carbonyl derivatives 10 with phosphine oxide substituents inhibit human TOP1 activity by converting supercoiled plasmid DNA to its relaxed form. In these experiments, compound samples were mixed with the enzyme followed by the addition of a supercoiled plasmid DNA substrate, and incubation continued for increasing time intervals (1 min, 3 min, and 5 min). The reaction was terminated by the addition of SDS. DNA relaxation products were then resolved by 1% agarose electrophoresis gel and visualized by gel red staining.
The yeast Saccaromyces cerevisiae TOP1 null strain RS190, which was used for the expression of recombinant human TOP1, was a kind gift from R. Sternglanz (State University of New York, Stony Brook, NY, USA). Plasmid pHT143, for the expression of recombinant TOP1 under the control of an inducible GAL promoter, was described. The plasmids pHT143 were transformed into the yeast S. cerevisiae strain RS190. The proteins were expressed and purified by affinity chromatography essentially as described. The protein concentrations were estimated from Coomassie blue-stained SDS/polyacrylamide gels by comparison to serial dilutions of bovine serum albumin (BSA).
TOP1 activity was assayed using a DNA relaxation assay by incubating 110 ng/mL of TOP1 with 0.5 µg of negatively supercoiled pUC18 in […] of reaction buffer (20 mM Tris HCl, 0.1 mM Na2EDTA, 10 mM MgCl2, […] acetylated BSA, and 150 mM KCl, pH 7.5). The effect of the synthesized phosphorylated derivatives 8, 9, and 10 on the TOP1 activity was measured by adding different concentrations of the compounds, at different time points, as indicated in the text. The reactions were performed at 37 °C stopped by the addition of 0.5% SDS after the indicated time intervals. The samples were protease-digested and electrophoresed in a horizontal 1% agarose gel in 1xTBE (50 mM Tris, 45 mM boric acid, 1 mM EDTA) at 25V during 18h. The gel was stained with gel red (BIOTIUM, 5 mg/mL), destained with water, and photographed under UV illumination. Since all drugs were dissolved in dimethyl sulfoxide (DMSO), a […] control sample containing the same DMSO concentration as the samples incubated with the drugs was included in all experiments.

Structures are written as SMILES. Where only a bound is given, the exact number is not on record here.

With `O=P(c1ccccc1)(c1ccccc1)c1ccc2nc(-c3cccc4ccccc34)c3c(c2c1)-c1ccccc1C3` [Compound 9g, Diphenyl(6-(naphthalen-1-yl)-7H-indeno[2,1-c]quinolin-2-yl)phosphine oxide], the IC50 in assay [1], in assay [2], in assay [4] and in assay [5] was over 50 µM each time. The “TOP1 Inhibition 30 min” value in assay [3] is on record as “++”. Further, the “TOP1 Inhibition 1 min” value in assay [6] is given as “++”. For the same compound, the “TOP1 Inhibition 3 min” value in assay [6] is recorded as “++”. For the same compound, the “TOP1 Inhibition 5 min” value in assay [6] is given as “++”.
As for `O=C1c2ccccc2-c2c1c(-c1ccccc1)nc1ccc(P(=O)(c3ccccc3)c3ccccc3)cc21` [Compound 10a, Diphenyl(7-oxo-6-phenyl-7H-indeno[2,1-c]quinolin-2-yl)phosphine oxide], the IC50 in assay [1], in assay [2], in assay [4] and in assay [5] was over 50 µM in each case. The “TOP1 Inhibition 30 min” value in assay [3] is “++”. For the same compound, the “TOP1 Inhibition 1 min” value in assay [6] is recorded as “+ (weak inhibition)”. Also, the “TOP1 Inhibition 3 min” value in assay [6] is “++”. The “TOP1 Inhibition 5 min” value in assay [6] was “++”.
`O=C1c2ccccc2-c2c1c(-c1ccc(C(F)(F)F)cc1)nc1ccc(P(=O)(c3ccccc3)c3ccccc3)cc21` [Compound 10b, Diphenyl(7-oxo-(6-(4-trifluoromethyl)phenyl)-7H-indeno[2,1-c]quinolin-2-yl)phosphine oxide]: the IC50 in assay [1], in assay [2], in assay [4] and in assay [5] was over 50 µM each time. Further, the “TOP1 Inhibition 30 min” value in assay [3] is given as “++”. In addition, the “TOP1 Inhibition 1 min” value in assay [6] is “++”. Besides, in assay [6], the “TOP1 Inhibition 3 min” value is listed as “++”. Moreover, the “TOP1 Inhibition 5 min” value in assay [6] is “++”.
Turning to `COc1cccc(-c2nc3ccc(P(=O)(c4ccccc4)c4ccccc4)cc3c3c2Cc2ccccc2-3)c1` [Compound 9i, Diphenyl(6-(3-methoxyphenyl)-7H-indeno[2,1-c]quinolin-2-yl)phosphine oxide], the IC50 in assay [1], in assay [2], in assay [4] and in assay [5] was over 50 µM each time. For the same compound, the “TOP1 Inhibition 30 min” value in assay [3] is listed as “++”. Moreover, in assay [6], the “TOP1 Inhibition 1 min” value is recorded as “++”. Further, the “TOP1 Inhibition 3 min” value in assay [6] is “++”. Also, the “TOP1 Inhibition 5 min” value in assay [6] is given as “++”.
